From BindingDB's records for doi:10.1111/cbdd.12881 (Sichuan University, 2017)

Columns and labels:
Assay in all cases: In Vitro Enzymatic Assay
Settings in all cases: 25 °C
[1] = molecular target: Protein arginine N-methyltransferase 5 (Homo sapiens, UniProt O14744)
Method: (§1) All in vitro enzymatic assays were carried out by Shanghai ChemPartner Co. (998 Halei Road, Pudong New Area, Shanghai, 201203, China). To measure the IC50 values, 10 concentrations of the target compound were tested. Compounds were prepared as10 mM stock in DMSO and diluted to final concentration in DMSO when needed. The PRMT enzymes and substrates were incubated with indicated concentrations of compounds in a 384-well plate for 60 min at room temperature. After the reaction, acceptor and donor solutions were added to label the residual substrates of PRMT enzymes. The labeling process was lasting for 60 min at room temperature, followedby the reading end-point with Enspire with alpha mode.

[2] = molecular target: T1, Histone-arginine methyltransferase CARM1 (Homo sapiens, UniProt Q86X55)
T1 sequence (Q86X55 whole entry): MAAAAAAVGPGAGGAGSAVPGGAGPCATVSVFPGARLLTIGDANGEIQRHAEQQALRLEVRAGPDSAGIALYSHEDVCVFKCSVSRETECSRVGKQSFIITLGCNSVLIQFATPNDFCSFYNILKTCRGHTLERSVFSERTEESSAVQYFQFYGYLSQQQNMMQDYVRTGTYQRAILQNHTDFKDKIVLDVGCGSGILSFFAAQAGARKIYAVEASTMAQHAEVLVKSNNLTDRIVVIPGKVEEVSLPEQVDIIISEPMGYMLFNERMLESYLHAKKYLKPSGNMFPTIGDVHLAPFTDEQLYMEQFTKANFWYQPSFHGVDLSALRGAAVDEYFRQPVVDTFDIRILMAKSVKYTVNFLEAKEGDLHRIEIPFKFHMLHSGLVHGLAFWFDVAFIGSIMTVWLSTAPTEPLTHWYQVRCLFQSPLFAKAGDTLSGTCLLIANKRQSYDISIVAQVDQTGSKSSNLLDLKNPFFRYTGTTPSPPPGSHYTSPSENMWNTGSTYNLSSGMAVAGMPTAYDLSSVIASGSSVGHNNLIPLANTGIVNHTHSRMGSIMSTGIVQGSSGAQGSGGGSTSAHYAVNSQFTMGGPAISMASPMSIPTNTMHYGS
Method: as §1

[3] = molecular target: T2, Protein arginine N-methyltransferase 1 [11-371] (Homo sapiens, UniProt Q99873)
T2 construct: 11-371
T2 sequence (Q99873 11-371): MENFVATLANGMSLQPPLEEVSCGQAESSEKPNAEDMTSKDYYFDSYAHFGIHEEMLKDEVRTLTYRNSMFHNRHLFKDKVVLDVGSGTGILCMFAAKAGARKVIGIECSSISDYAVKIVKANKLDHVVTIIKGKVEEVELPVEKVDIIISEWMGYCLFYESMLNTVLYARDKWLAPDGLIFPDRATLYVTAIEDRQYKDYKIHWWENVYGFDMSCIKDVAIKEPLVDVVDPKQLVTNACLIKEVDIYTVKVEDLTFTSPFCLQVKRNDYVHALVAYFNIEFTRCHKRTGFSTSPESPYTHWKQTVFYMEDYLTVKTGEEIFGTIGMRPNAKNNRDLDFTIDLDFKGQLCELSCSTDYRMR
Method: as §1

[4] = molecular target: Protein arginine N-methyltransferase 3 [N508S] (Homo sapiens, UniProt O60678, N508S)
Sequence of Protein arginine N-methyltransferase 3 [N508S] (O60678 2-531 N508S limits assumed): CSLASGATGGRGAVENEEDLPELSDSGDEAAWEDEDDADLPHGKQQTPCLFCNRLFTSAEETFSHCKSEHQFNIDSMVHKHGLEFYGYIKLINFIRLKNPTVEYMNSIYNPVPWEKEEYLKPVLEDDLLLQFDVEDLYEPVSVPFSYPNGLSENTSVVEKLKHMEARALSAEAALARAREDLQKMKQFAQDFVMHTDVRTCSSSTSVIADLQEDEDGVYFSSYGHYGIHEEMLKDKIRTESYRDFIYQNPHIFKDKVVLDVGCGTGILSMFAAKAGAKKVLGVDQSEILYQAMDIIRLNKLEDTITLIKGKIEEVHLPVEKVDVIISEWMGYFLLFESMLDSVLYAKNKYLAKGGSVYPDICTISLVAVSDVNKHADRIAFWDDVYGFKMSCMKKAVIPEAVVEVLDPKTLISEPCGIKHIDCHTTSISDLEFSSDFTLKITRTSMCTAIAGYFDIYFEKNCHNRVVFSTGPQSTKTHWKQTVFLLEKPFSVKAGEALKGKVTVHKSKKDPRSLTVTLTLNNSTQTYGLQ
Method: as §1

[5] = molecular target: Protein arginine N-methyltransferase 6 (Homo sapiens, UniProt Q96LA8)
Sequence of Protein arginine N-methyltransferase 6 (Q96LA8 whole entry): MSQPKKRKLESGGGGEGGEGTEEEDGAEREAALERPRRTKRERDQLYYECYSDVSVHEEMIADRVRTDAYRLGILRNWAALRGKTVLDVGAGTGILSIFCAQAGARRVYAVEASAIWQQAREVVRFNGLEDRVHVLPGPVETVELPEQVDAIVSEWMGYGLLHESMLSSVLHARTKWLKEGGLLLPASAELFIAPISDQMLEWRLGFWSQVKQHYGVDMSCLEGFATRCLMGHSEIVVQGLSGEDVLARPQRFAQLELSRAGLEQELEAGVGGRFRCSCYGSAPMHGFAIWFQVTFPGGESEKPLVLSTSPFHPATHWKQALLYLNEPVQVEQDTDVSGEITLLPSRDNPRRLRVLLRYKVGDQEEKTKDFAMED
Method: as §1

[6] = molecular target: T3, Protein arginine N-methyltransferase 7 (Homo sapiens, UniProt Q9NVM4)
T3 sequence (Q9NVM4 whole entry): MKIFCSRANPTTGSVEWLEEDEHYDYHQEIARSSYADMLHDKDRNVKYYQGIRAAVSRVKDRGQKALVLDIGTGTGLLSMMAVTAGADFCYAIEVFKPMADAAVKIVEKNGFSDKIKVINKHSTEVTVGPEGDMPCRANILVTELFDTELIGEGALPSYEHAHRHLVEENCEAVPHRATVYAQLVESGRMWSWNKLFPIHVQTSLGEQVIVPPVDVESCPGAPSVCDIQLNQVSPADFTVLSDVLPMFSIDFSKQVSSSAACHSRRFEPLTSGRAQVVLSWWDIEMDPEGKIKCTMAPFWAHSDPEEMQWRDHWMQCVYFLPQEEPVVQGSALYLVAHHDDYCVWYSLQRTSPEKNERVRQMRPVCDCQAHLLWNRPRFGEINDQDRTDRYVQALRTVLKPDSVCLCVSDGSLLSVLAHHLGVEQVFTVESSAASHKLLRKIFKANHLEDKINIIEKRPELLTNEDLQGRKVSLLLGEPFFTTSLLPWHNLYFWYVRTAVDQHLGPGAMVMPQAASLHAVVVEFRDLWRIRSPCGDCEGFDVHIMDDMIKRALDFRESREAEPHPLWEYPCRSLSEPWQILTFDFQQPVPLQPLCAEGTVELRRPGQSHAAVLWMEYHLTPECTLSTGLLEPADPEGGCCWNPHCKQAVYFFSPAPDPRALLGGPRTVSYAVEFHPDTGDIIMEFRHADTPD
Method: as §1

[7] = molecular target: Protein arginine N-methyltransferase 8 (Homo sapiens, UniProt Q9NR22)
Sequence of Protein arginine N-methyltransferase 8 (Q9NR22 whole entry): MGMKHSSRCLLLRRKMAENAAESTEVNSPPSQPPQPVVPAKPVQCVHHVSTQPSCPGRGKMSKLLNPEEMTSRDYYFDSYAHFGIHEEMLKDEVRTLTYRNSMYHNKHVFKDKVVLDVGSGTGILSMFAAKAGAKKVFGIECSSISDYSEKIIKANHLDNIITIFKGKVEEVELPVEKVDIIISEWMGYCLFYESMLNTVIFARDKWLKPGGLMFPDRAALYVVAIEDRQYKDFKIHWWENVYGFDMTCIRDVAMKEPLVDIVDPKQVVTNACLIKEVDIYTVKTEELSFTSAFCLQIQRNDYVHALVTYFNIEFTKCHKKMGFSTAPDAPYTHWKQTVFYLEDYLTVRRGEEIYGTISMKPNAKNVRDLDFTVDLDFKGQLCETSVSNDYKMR
Method: as §1

Sequence of Protein arginine N-methyltransferase 5 (O14744 whole entry): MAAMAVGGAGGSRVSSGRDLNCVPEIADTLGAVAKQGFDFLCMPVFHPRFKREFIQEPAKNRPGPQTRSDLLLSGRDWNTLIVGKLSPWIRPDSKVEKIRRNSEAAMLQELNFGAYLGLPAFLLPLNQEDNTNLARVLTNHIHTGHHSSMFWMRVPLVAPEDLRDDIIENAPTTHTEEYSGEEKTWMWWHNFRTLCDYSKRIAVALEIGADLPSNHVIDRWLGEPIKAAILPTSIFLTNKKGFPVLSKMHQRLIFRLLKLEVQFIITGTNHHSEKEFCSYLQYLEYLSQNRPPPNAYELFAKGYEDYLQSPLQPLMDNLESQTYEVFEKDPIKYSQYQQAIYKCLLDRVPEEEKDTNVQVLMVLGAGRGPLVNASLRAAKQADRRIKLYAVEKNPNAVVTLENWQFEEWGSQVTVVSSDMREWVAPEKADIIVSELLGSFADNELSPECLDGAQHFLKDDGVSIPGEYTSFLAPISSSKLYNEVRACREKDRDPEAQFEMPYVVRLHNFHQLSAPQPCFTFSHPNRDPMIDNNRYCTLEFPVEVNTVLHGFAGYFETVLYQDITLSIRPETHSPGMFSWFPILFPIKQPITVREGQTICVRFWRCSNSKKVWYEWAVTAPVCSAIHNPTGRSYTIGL

Question: How did the IC50 [1] turn out when `NC(=O)N/N=C/c1cncc(-c2ccc(Cl)cc2)c1` [2-((5-(4-chlorophenyl)pyridin-3-yl)methylene)hydrazinecarboxamide (9f)] was run?
Answer: 6.9 µM

Question: Which IC50 [1] does the source give for `NC(=O)N/N=C/c1cccc(-c2ccc(Cl)cc2)c1` [2-((4′-chloro-[1,1′-biphenyl]-3-yl)methylene)hydrazinecarboxamide (9b)] here?
Answer: 3.8 µM

Question: For `NC(=O)N/N=C/c1ccc(-c2ccc(F)cc2)o1` [2-((5-(4-fluorophenyl)furan-2-yl)methylene)hydrazinecarboxamide (4e)], which IC50 [1] is on record?
Answer: 12 µM

Question: How did the IC50 [1] turn out when `NC(=O)N/N=C/c1cccc(-c2ccc(Cl)cc2)n1` [2-((6-(4-chlorophenyl)pyridin-2-yl)methylene)hydrazinecarboxamide (9g)] was run?
Answer: 3.5 µM

Question: Which IC50 [1] does the source give for `NC(=S)N/N=C/c1ccc(-c2ccc(Cl)cc2)o1` [P5i-7] here?
Answer: 0.72 µM

Question: What does the source list for `NC(=O)N/N=C/c1ccc(-c2ccc(Cl)cc2)o1` [P5i-6]?
Answer: IC50 [2]: > 100 µM; IC50 [3]: > 100 µM; IC50 [4]: > 100 µM; IC50 [5]: > 100 µM; IC50 [6]: > 100 µM; IC50 [7]: > 100 µM

Question: `NC(=O)N/N=C/c1ccc(-c2ccc(Cl)cc2N)o1` [2-((5-(2-amino-4-chlorophenyl)furan-2-yl)methylene)hydrazinecarboxamide (4m)] was tested. Which IC50 [1] did it give?
Answer: 13 µM

Question: How did the IC50 [1] turn out when `NC(=O)N/N=C/c1ccc(-c2ccc(N)cc2)o1` [2-((5-(4-aminophenyl)furan-2-yl)methylene)hydrazinecarboxamide (4j)] was run?
Answer: 40 µM

Question: With `COc1ccc(-c2ccc(/C=N/NC(N)=O)o2)cc1` [2-((5-(4-methoxyphenyl)furan-2-yl)methylene)hydrazinecarboxamide (4h)] as the molecule, how does the IC50 [1] read?
Answer: 2.1 µM

Question: How did the IC50 [1] turn out when `NC(=O)N/N=C/c1ccc(-c2cccc(F)c2)o1` [2-((5-(3-fluorophenyl)furan-2-yl)methylene)hydrazinecarboxamide (4d)] was run?
Answer: 14 µM

Question: Which IC50 [1] does the source give for `O=C1NC(=S)NC(=O)C1=Cc1ccc(-c2ccc(Cl)cc2)o1` [5-{[5-(4-chlorophenyl)furan-2-yl]methylidene}-2-sulfanylidene-1,3-diazinane-4,6-dione] here?
Answer: 67 µM

Question: How did the IC50 [1] turn out when `NC(=O)N/N=C/c1ccc(-c2ccc([N+](=O)[O-])cc2)o1` [2-((5-(4-nitrophenyl)furan-2-yl)methylene)hydrazinecarboxamide (4g)] was run?
Answer: 18 µM

Question: With `NC(=O)N/N=C/c1ccc(-c2ccccc2)o1` [2-((5-phenylfuran-2-yl)methylene)hydrazinecarboxamide (4a)] as the molecule, how does the IC50 [1] read?
Answer: 12 µM
